Data from PubChem BioAssay AID276 (DTP/NCI, 2004).
“And” between values parts separate entries of the source, which are not always exact repeats. Equal entries are not always repeated. Inconclusive results and toxic doses are left out. The calls were made as follows: active = survival T/C of 150% or more; inactive = T/C below 125% in these data. Positions of bridges follow the written chain, without caps; N, C: chain ends. Residues, ends and D or L forms follow the SMILES beside them.

System: B6C3F1 mice, Lewis lung carcinoma iv, survival T/C
Assay: NCI In Vivo Anticancer Drug Screen. Data for tumor model Lewis Lung Carcinoma (intravenous) in B6C3F1 mice
Details: endpoint: median survival time, schedule: Q01DX009 (ip), higher = longer survival
Method in brief: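 Transplantable tumor in mice; compound treated vs vehicle controls; read-out survival; value = treated/control (T/C).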

[1] = dose: 25.0 mg/kg/injection, vehicle: saline
[2] = dose: 10.0 mg/kg/injection, vehicle: saline
[3] = dose: 6.25 mg/kg/injection, vehicle: saline with Tween-80
[4] = dose: 12.5 mg/kg/injection, vehicle: saline with Tween-80
[5] = dose: 25.0 mg/kg/injection, vehicle: saline with Tween-80
[6] = dose: 50.0 mg/kg/injection, vehicle: saline with Tween-80
[7] = dose: 100.0 mg/kg/injection, vehicle: saline with Tween-80
[8] = dose: 200.0 mg/kg/injection, vehicle: saline with Tween-80
[9] = dose: 400.0 mg/kg/injection, vehicle: saline with Tween-80

Measured: T/C

CCc1ncnc2cc(OCC3CO3)c(OC)cc12 (stereo not given)
inactive: dose: 3.13 mg/kg/injection, vehicle: saline 98 % of control | dose: 6.25 mg/kg/injection, vehicle: saline 100 % of control and 106 % of control | dose: 12.5 mg/kg/injection, vehicle: saline 102 % of control and 104 % of control | [1] 117 % of control and 118 % of control

O=c1[nH]cc(F)c(=O)[nH]1
inactive: dose: 5.0 mg/kg/injection, vehicle: saline 105 % of control | [2] 97 % of control and 102 % of control | dose: 20.0 mg/kg/injection, vehicle: saline 107 % of control

CCOC(=O)Nc1cc2c(c(N)n1)N=C(c1ccc(Cl)cc1Cl)CN2
inactive: [3] 97 % of control | [4] 113 % of control

CC(Oc1ccccc1-c1ccccc1)C(=O)N(C)C (stereo not given)
inactive: [4] 106 % of control | [5] 110 % of control | [6] 107 % of control | [7] 96 % of control | [8] 101 % of control | [9] 100 % of control

CC(=O)N(C)C
inactive: dose: 122.5 mg/kg/injection, vehicle: saline 88 % of control | dose: 225.0 mg/kg/injection, vehicle: saline 95 % of control | dose: 450.0 mg/kg/injection, vehicle: saline 110 % of control | dose: 900.0 mg/kg/injection, vehicle: saline 100 % of control | dose: 1800.0 mg/kg/injection, vehicle: saline 93 % of control | dose: 3600.0 mg/kg/injection, vehicle: saline 104 % of control

CC(=O)OC1(C)CC(C)C(=O)C(C(O)CC2CC(=O)NC(=O)C2)C1 (stereo not given)
inactive: dose: 15.6 micrograms/kg/injection, vehicle: saline 96 % of control | dose: 31.3 micrograms/kg/injection, vehicle: saline 95 % of control | dose: 62.5 micrograms/kg/injection, vehicle: saline 100 % of control | dose: 125.0 micrograms/kg/injection, vehicle: saline 100 % of control | dose: 250.0 micrograms/kg/injection, vehicle: saline 107 % of control

CO[C@H]1Nc2c(ccc(C)c2O)C(=O)N2C=C(/C=C/C(N)=O)C[C@@H]12
inactive: dose: 0.06 mg/kg/injection, vehicle: saline + alcohol 105 % of control | dose: 0.12 mg/kg/injection, vehicle: saline + alcohol 100 % of control | dose: 0.25 mg/kg/injection, vehicle: saline + alcohol 113 % of control

O=C(Nc1ccccc1)c1c(O)[nH]c(=S)[nH]c1=O
inactive: [4] 103 % of control | [5] 106 % of control | [6] 115 % of control

CCC(C)C1NC(=O)C(CC(C)C)NC(=O)C(C(C)C)NC(=O)C2CSSCC(NC1=O)C(=O)N2 (stereo not given) (cyclo(CCVLI); disulfide 1-2; configuration not given here)
inactive: dose: 31.25 micrograms/kg/injection, vehicle: Klucel (hydroxypropylcellulose) (HPC) 93 % of control | dose: 62.5 micrograms/kg/injection, vehicle: Klucel (hydroxypropylcellulose) (HPC) 99 % of control | dose: 125.0 micrograms/kg/injection, vehicle: Klucel (hydroxypropylcellulose) (HPC) 93 % of control | dose: 250.0 micrograms/kg/injection, vehicle: Klucel (hydroxypropylcellulose) (HPC) 98 % of control | dose: 500.0 micrograms/kg/injection, vehicle: Klucel (hydroxypropylcellulose) (HPC) 88 % of control | dose: 1000.0 micrograms/kg/injection, vehicle: Klucel (hydroxypropylcellulose) (HPC) 100 % of control

C[PH+](C)C.C[PH+](C)C.[Au]
inactive: dose: 0.62 mg/kg/injection, vehicle: saline 97 % of control | dose: 1.25 mg/kg/injection, vehicle: saline 102 % of control | dose: 2.5 mg/kg/injection, vehicle: saline 105 % of control | [2] 109 % of control

CNc1cccnc1/C=N/NC(N)=S
inactive: [4] 104 % of control | [5] 122 % of control | [6] 90 % of control

COc1c(C=O)c2c(c(OC)c1OC)-c1ccc(OC)c(=O)cc1[C@@H](NC(C)=O)CC2
inactive: dose: 1.56 mg/kg/injection, vehicle: Klucel (hydroxypropylcellulose) (HPC) 95 % of control | dose: 3.12 mg/kg/injection, vehicle: Klucel (hydroxypropylcellulose) (HPC) 98 % of control | dose: 6.25 mg/kg/injection, vehicle: Klucel (hydroxypropylcellulose) (HPC) 95 % of control

O=C1C(NCCO)=C(N2CC2)C(=O)C(NCCO)=C1N1CC1
inactive: dose: 0.06 mg/kg/injection, vehicle: saline 103 % of control | dose: 0.12 mg/kg/injection, vehicle: saline 97 % of control | dose: 0.25 mg/kg/injection, vehicle: saline 106 % of control | dose: 0.5 mg/kg/injection, vehicle: saline 108 % of control | dose: 1.0 mg/kg/injection, vehicle: saline 106 % of control

CC(/C=C/c1ccccc1)=Nc1ccccc1
inactive: [4] 109 % of control | [5] 101 % of control | [6] 97 % of control | [7] 99 % of control | [8] 105 % of control

O=C1[C@H]2CCC[C@H]2[C@H]2CCC[C@@H]12
inactive: [3] 95 % of control | [4] 104 % of control | [5] 98 % of control | [6] 95 % of control | [7] 91 % of control | [8] 102 % of control

COC(=O)Nc1nc2ccc(SC)cc2c(=O)[nH]1
inactive: dose: 25.0 mg/kg/injection, vehicle: Klucel (hydroxypropylcellulose) (HPC) 99 % of control | dose: 50.0 mg/kg/injection, vehicle: Klucel (hydroxypropylcellulose) (HPC) 110 % of control | dose: 100.0 mg/kg/injection, vehicle: Klucel (hydroxypropylcellulose) (HPC) 100 % of control | dose: 200.0 mg/kg/injection, vehicle: Klucel (hydroxypropylcellulose) (HPC) 110 % of control

C=C1C(=O)OC2CC(C)C3C4OC4C(O)C3(C)C(O)C12 (stereo not given)
inactive: dose: 5.62 mg/kg/injection, vehicle: saline 100 % of control | dose: 11.25 mg/kg/injection, vehicle: saline 102 % of control | dose: 22.5 mg/kg/injection, vehicle: saline 100 % of control | dose: 45.0 mg/kg/injection, vehicle: saline 108 % of control | dose: 90.0 mg/kg/injection, vehicle: saline 105 % of control

COc1ccc(OC)c(Cc2cnc3nc(N)nc(N)c3c2C)c1
inactive: dose: 6.25 mg/kg/injection, vehicle: water 104 % of control | dose: 12.5 mg/kg/injection, vehicle: water 112 % of control | dose: 25.0 mg/kg/injection, vehicle: water 100 % of control | dose: 50.0 mg/kg/injection, vehicle: water 92 % of control

N#CCCSC(=S)C1CCCC1=N (stereo not given)
inactive: [4] 99 % of control | [5] 103 % of control | [6] 98 % of control | [7] 103 % of control | [8] 105 % of control | [9] 106 % of control

N=C1CCCS1
inactive: [1] 117 % of control | dose: 50.0 mg/kg/injection, vehicle: saline 122 % of control
